The subject of one series is SN12C (Renal). Briefly: NCI Developmental Therapeutics antiproliferative assay, SN12C. Format: cell-based, human. The protocol:
(§1) Biological Results. The indenoisoquinoline analogues were tested for antiproliferative activity in the National Cancer Institute's Developmental Therapeutics Assay against cell lines derived from approximately 60 different human tumors. […] Results are reported in Table 2 as GI50 values for selected cell lines, and overall antiproliferative potency is quantified as a mean-graph midpoint (MGM).

Another series has as its system HOP-62 (Lung). Briefly: NCI Developmental Therapeutics antiproliferative assay, HOP-62. It is filed as cell-based, human. The protocol:
(§2) Biological Results. The indenoisoquinoline analogues were tested for antiproliferative activity in the National Cancer Institute's Developmental Therapeutics Assay against cell lines derived from approximately 60 different human tumors.

A further series has as its system HCT-116 (Colon). Briefly: NCI Developmental Therapeutics antiproliferative assay, HCT-116. Format: cell-based, human. The procedure:
as §2

For a further series, the system named is MCF7 (Breast). Briefly: NCI Developmental Therapeutics antiproliferative assay, MCF7. It is filed as cell-based, human. The protocol: as §1
In another series the test system is OVCAR-3 (Ovarian). The series is described as follows: NCI Developmental Therapeutics antiproliferative assay, OVCAR-3. It is filed as cell-based, human. The procedure: as §1
Another series concerns SF-539 (CNS). The series is described as follows: NCI Developmental Therapeutics antiproliferative assay, SF-539. It is filed as cell-based, human. The protocol: as §1
Series [1] has as its system all human cancer cell lines successfully tested. Briefly: NCI-60 cell line assay, mean-graph midpoint. The following applies: for MGM (mean graph midpoint for growth inhibition): all human cancer cell lines tested, 10^−8 to 10^−4 molar; for GI50: read-out: MGM GI50. Format: cell-based. The protocol: Biological Results. The indenoisoquinoline analogues were tested for antiproliferative activity in the National Cancer Institute's Developmental Therapeutics Assay against cell lines derived from approximately 60 different human tumors. […] The cytotoxicities of the compounds to cultured cancer cells were measured in the National Cancer Institute's 60 cell line assay (a.k.a. NCI-60).

For a further series, the system named is UACC-62 (Melanoma). The series is described as follows: NCI Developmental Therapeutics antiproliferative assay, UACC-62. It is filed as cell-based, human. The protocol:
as §2

For another series, the system named is DU-145 (Prostate). Briefly: NCI Developmental Therapeutics antiproliferative assay, DU-145. Format: cell-based, human. The procedure: as §2
Series [2] concerns cell lines derived from approximately 60 different human tumors. The series is described as follows: NCI initial one-dose screening assay. The following applies: percentage of cell growth, one-dose assay at 10 μM. Format: cell-based.

Read-outs that look alike come from different tables or passages of the source. Marks after values point to notes of the source that are not given here. Where only a bound is given, the exact number is not on record here.

Consider “(1′RS)-5,6-Dihydro-6-(3′-hydroxy-2′-methylethyl)-5,11-dioxo-11H-indeno[1,2-c]isoquinoline [Compound 22c]”, for which the GI50 in the series with SN12C (Renal) was determined as 37.1 µM; with HOP-62 (Lung), 17.6 µM; with HCT-116 (Colon) it was 15.9 µM; in the series with MCF7 (Breast), 34.4 µM; in the series with OVCAR-3 (Ovarian), 25.7 µM; in the series with SF-539 (CNS), 14.4 µM. Further, the GI50 with UACC-62 (Melanoma) was 11.7 µM; in the series on DU-145 (Prostate), 23.7 µM. For the same compound, in series [1], the “MGM (mean graph midpoint for growth inhibition)” value was 15.6 ± 2.15 µM.

On to `O=C1c2ccccc2-c2c1c1ccccc1c(=O)n2C[C@H](O)[C@@H](O)[C@@H](O)CO` [Compound 17g, (2′S,3′R,4′S,5′R)-5,6-Dihydro-6-(2′,3′,4′,5′-tetrahydroxypentyl)-5,11-dioxo-11H-indeno[1,2-c]isoquinoline], for which, in [2], the “Growth Percent” value is on record as 67.99%.

Take `C[C@@H](O)Cn1c2c(c3ccccc3c1=O)C(=O)c1ccccc1-2` [Compound 27a, (2′R)-5,6-Dihydro-6-(2′-hydroxypropyl)-5,11-dioxo-11H-indeno[1,2-c]isoquinoline]: the GI50 in the series with SN12C (Renal) came out at 9.33 µM; in the series on HOP-62 (Lung), 3.39 µM; with HCT-116 (Colon), 5.52 µM; in the series on MCF7 (Breast), 3.23 µM; in the series on OVCAR-3 (Ovarian), 21.4 µM; in the series with SF-539 (CNS) it was 6.31 µM. Also, the figures for the GI50 with UACC-62 (Melanoma) and in the series on DU-145 (Prostate) were 10.2 µM and 8.32 µM, respectively. Further, the “MGM (mean graph midpoint for growth inhibition)” value in [1] turned out to be 10.2 µM. In addition, in [2], the “Growth Percent” value worked out at 55.23%.

In the case of `COc1cc2c3c(n(C[C@H](O)CO)c(=O)c2cc1OC)-c1ccccc1C3=O` [Compound 29, (2′S)-5,6-Dihydro-6-(2′,3′-dihydroxypropyl)-2,3-dimethoxy-5,11-dioxo-11H-indeno[1,2-c]isoquinoline], the GI50 with SN12C (Renal) was determined as 0.501 µM; in the series with HOP-62 (Lung), 0.336 µM; in the series with HCT-116 (Colon) it was 0.23 µM; in the series on MCF7 (Breast) it was 0.097 µM; with OVCAR-3 (Ovarian), 0.287 µM; in the series on SF-539 (CNS) it was 0.214 µM. Besides, the GI50 was 0.401 µM in series [1], 0.144 µM with UACC-62 (Melanoma) and 0.419 µM in the series on DU-145 (Prostate). In addition, in [1], the “MGM (mean graph midpoint for growth inhibition)” value was 0.401 ± 0.055 µM.

With `O=C1c2ccccc2-c2c1c1ccccc1c(=O)n2C[C@@H](O)[C@@H](O)[C@H](O)CO` [Compound 17e, (2′R,3′R,4′R)-5,6-Dihydro-6-(2′,3′,4′,5′-tetrahydroxypentyl)-5,11-dioxo-11H-indeno[1,2-c]isoquinoline], the GI50 with SN12C (Renal) was determined as 5.01 µM; in the series on HOP-62 (Lung), 6.46 µM; in the series on MCF7 (Breast), 1.9 µM; in the series on OVCAR-3 (Ovarian) it was 13.2 µM; with SF-539 (CNS), 11.2 µM; in the series with UACC-62 (Melanoma), 6.31 µM. The “MGM (mean graph midpoint for growth inhibition)” value in [1] was 7.76 µM. Moreover, in series [2], the “Growth Percent” value is recorded as 50.62%.

As for `NCCCn1c2c(c3ccc([N+](=O)[O-])cc3c1=O)C(=O)c1cc3c(cc1-2)OCO3` [reference compound], in series [1] (Homo sapiens, Table 3, NCI-60, unit inferred), the GI50 stood at 0.09 ± 0.04 µM.

Consider “(1′R)-5,6-Dihydro-6-(3′-hydroxy-1′-methylethyl)-5,11-dioxo-11H-indeno[1,2-c]isoquinoline [Compound 22b]”, for which the “Growth Percent” value in [2] is 78.60%.

For `C[C@H](O)Cn1c2c(c3ccccc3c1=O)C(=O)c1ccccc1-2` [Compound 27c, (2′RS)-5,6-Dihydro-6-(2′-hydroxypropyl)-5,11-dioxo-11H-indeno[1,2-c]isoquinoline], the GI50 was 3.98 µM in the series on SN12C (Renal); 3.46 µM in the series with HOP-62 (Lung); 5.75 µM with HCT-116 (Colon); 3.8 µM with MCF7 (Breast); 16.2 µM in the series with OVCAR-3 (Ovarian); 6.76 µM with SF-539 (CNS). In addition, the results for the GI50 in the series with UACC-62 (Melanoma) and in the series with DU-145 (Prostate) were 6.16 µM and 4.36 µM, respectively. Besides, in [1], the “MGM (mean graph midpoint for growth inhibition)” value was 7.9 µM. For the same compound, in series [2], the “Growth Percent” value is reported as 50.24%.

For `O=C1c2ccccc2-c2c1c1ccccc1c(=O)n2CC(O)CO` (racemic) [Compound 12c, (2′RS)-5,6-Dihydro-6-[(2′,3′-dihydroxypropyl)]-5,11-dioxo-11H-indeno[1,2-c]isoquinoline], the GI50 in the series on SN12C (Renal) (Homo sapiens, SN12C, 50% growth inhibition, read-out: Cytotoxicity (GI50) Renal SN12C) was 2.95 µM; in the series with HOP-62 (Lung) (Homo sapiens, HOP-62, 50% growth inhibition, read-out: Cytotoxicity (GI50) Lung HOP-62) it was 7.76 µM; in the series with HCT-116 (Colon) (Homo sapiens, HCT-116, 50% growth inhibition, read-out: Cytotoxicity (GI50) Colon HCT-116), 4.36 µM; in the series with MCF7 (Breast) (Homo sapiens, MCF7, 50% growth inhibition, read-out: Cytotoxicity (GI50) Breast MCF7), 3.55 µM; in the series with OVCAR-3 (Ovarian) (Homo sapiens, OVCAR-3, 50% growth inhibition, read-out: Cytotoxicity (GI50) Ovarian OVCAR-3), 18.6 µM; in the series on SF-539 (CNS) (Homo sapiens, SF-539, 50% growth inhibition, read-out: Cytotoxicity (GI50) CNS SF-539) it was 5.89 µM. For the same compound, the GI50 was found to be 5.13 µM in [1] (Homo sapiens); 7.58 µM with UACC-62 (Melanoma) (Homo sapiens, UACC-62, 50% growth inhibition, read-out: Cytotoxicity (GI50) Melanoma UACC-62); 2.88 µM in the series on DU-145 (Prostate) (Homo sapiens, DU-145, 50% growth inhibition, read-out: Cytotoxicity (GI50) Prostate DU-145). Moreover, in [1], the “MGM (mean graph midpoint for growth inhibition)” value amounted to 5.13 µM.

With `O=C1c2ccccc2-c2c1c1ccccc1c(=O)n2C[C@H](O)[C@@H](O)[C@H](O)CO` [Compound 17d, (2′S,3′R,4′R)-5,6-Dihydro-6-(2′,3′,4′,5′-tetrahydroxypentyl)-5,11-dioxo-11H-indeno[1,2-c]isoquinoline], the GI50 in the series on SN12C (Renal) came out at 2.24 µM; in the series on HOP-62 (Lung), 3.23 µM; in the series with MCF7 (Breast) it was 1.74 µM; in the series on OVCAR-3 (Ovarian), 24 µM; with SF-539 (CNS), 7.94 µM. Moreover, in series [1], the “MGM (mean graph midpoint for growth inhibition)” value was 4.07 µM. Further, the “Growth Percent” value in series [2] was determined as 34.91%.

As for `O=C1c2ccccc2-c2c1c1ccccc1c(=O)n2C[C@@H](O)[C@H](O)[C@H](O)CO` [Compound 17a, (2′R, 3′S, 4′R)-5,6-Dihydro-6-(2′,3′,4′,5′-tetrahydroxypentyl)-5,11-dioxo-11H-indeno[1,2-c]isoquinoline], the GI50 in the series on SN12C (Renal) is 20 µM; in the series with HOP-62 (Lung), 8.71 µM; with MCF7 (Breast) it was 4.57 µM; in the series with OVCAR-3 (Ovarian), over 100 µM; in the series on SF-539 (CNS), 7.59 µM; with UACC-62 (Melanoma), 7.41 µM. The “MGM (mean graph midpoint for growth inhibition)” value in series [1] was 19.9 µM. The “Growth Percent” value in [2] turned out to be 58.44%.

Regarding `O=C1c2ccccc2-c2c1c1ccccc1c(=O)n2C[C@H](O)[C@H](O)[C@H](O)[C@H](O)CO` [Compound 17h, (2′S,3′S,4′R,5′R)-5,6-Dihydro-6-(2′,3′,4′,5′,6′-pentahydroxyhexyl)-5,11-dioxo-11H-indeno[1,2-c]isoquinoline], the GI50 in the series on SN12C (Renal) came to 3.39 µM; with HOP-62 (Lung), 3.23 µM; in the series with HCT-116 (Colon) it was 4.17 µM; in the series on MCF7 (Breast) it was 1.78 µM; in the series on OVCAR-3 (Ovarian), 13.8 µM; in the series with SF-539 (CNS), 5.75 µM. Further, the GI50 with UACC-62 (Melanoma) came out at 2.95 µM; with DU-145 (Prostate), 3.31 µM. Moreover, the “MGM (mean graph midpoint for growth inhibition)” value in [1] amounted to 5.75 µM. Besides, the “Growth Percent” value in [2] is 49.31%.

As for `O=C1c2ccccc2-c2c1c1ccccc1c(=O)n2C[C@H](O)[C@H](O)[C@H](O)CO` [Compound 17b, (2′S,3′S,4′R)-5,6-Dihydro-6-(2′,3′,4′,5′-tetrahydroxypentyl)-5,11-dioxo-11H-indeno[1,2-c]isoquinoline], the GI50 with SN12C (Renal) was found to be 2.4 µM; in the series with MCF7 (Breast) it was 1.38 µM; in the series on OVCAR-3 (Ovarian) it was 13.5 µM; in the series with SF-539 (CNS), 2.14 µM; with UACC-62 (Melanoma) it was 3.23 µM. Moreover, the “MGM (mean graph midpoint for growth inhibition)” value in series [1] came out at 3.31 µM. In addition, in series [2], the “Growth Percent” value stood at 17.28%.

With `O=C1c2ccccc2-c2c1c1ccc([N+](=O)[O-])cc1c(=O)n2C[C@H](O)CO` [Compound 30, (2′S)-5,6-Dihydro-6-(2′,3′-dihydroxypropyl)-3-nitro-5,11-dioxo-11H-indeno[1,2-c]isoquinoline], in series [1], the “MGM (mean graph midpoint for growth inhibition)” value was 0.156 ± 0.061 µM and the GI50 was 0.156 µM.

Take `C[C@H](O)Cn1c2c(c3ccccc3c1=O)C(=O)c1ccccc1-2` [Compound 27b, (2′S)-5,6-Dihydro-6-(2′-hydroxypropyl)-5,11-dioxo-11H-indeno[1,2-c]isoquinoline]: the “Growth Percent” value in series [2] is on record as 54.88%.

As for `O=C1c2ccccc2-c2c1c1ccccc1c(=O)n2C[C@@H](O)[C@@H](O)[C@H](O)[C@H](O)CO` [Compound 17f, (2′R, 3′R, 4′R, 5′R)-5,6-Dihydro-6-(2′,3′,4′,5′,6′-pentahydroxyhexyl)-5,11-dioxo-11H-indeno[1,2-c]isoquinoline], the “Growth Percent” value in [2] is 69.35%.

For the compound `O=C1c2ccccc2-c2c1c1ccccc1c(=O)n2C[C@H](O)[C@@H](O)[C@H](O)[C@H](O)CO` [Compound 17c, (2′S,3′R,4′R,5′R)-5,6-Dihydro-6-(2′,3′,4′,5′,6′-pentahydroxyhexyl)-5,11-dioxo-11H-indeno[1,2-c]isoquinoline], the “Growth Percent” value in [2] is given as 97.16^e %.

The values are drawn from patent publication US9682990B2, “Alcohol-, diol-, and carbohydrate-substituted indenoisoquinolines as topoisomerase I inhibitors” (Purdue Research Foundation, priority 2011, dated 2017).
